For 34 compounds, IC50 results are on record in patent US9499493B2, “2,4-pyrimidinediamine compounds and their uses” (Rigel Pharmaceuticals, Inc., priority 2002, dated 2016).

Structures can show the parent of a compound that is named as a salt.

The test system of test [1] is cultured human mast cells (CHMC). Description: CHMC low cell density IgE activation: tryptase assay. The format is cell-based. The settings on record: anti-IgE. In a few lines:
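Cells pelleted, taken up in warm MT, plated at 1000-1500/well, held 1 hr 37° C. Anti-IgE added, 30 min 37° C. Plates spun; supernatant mixed with tryptase substrate, 30 min RT.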

Test [2] shares this test system. Put plainly: CHMC low cell density ionomycin activation: tryptase assay. It is filed as cell-based.

Turning to `CNC(=O)CCn1ncc2cc(Nc3ncc(F)c(Nc4ccc(Cl)nc4)n3)ccc21` [R935378, N4-(6-Chloro-3-pyridyl)-5-fluoro-N2-[1-[2(N-methylaminocarbonyl)ethyl]indazoline-5-yl]-2,4-pyrimidinediamine], the IC50 in test [1] is 566 nM; in test [2], more than 10 µM.
For `OCCn1ncc2cc(Nc3ncc(F)c(Nc4cccc(O)c4)n3)ccc21` [R935256, 5-Fluoro-N2-[1-(2-hydroxyethyl)indazoline-5-yl]-N4-(3-hydroxyphenyl)-2,4-pyrimidinediamine], the IC50 is 324 nM in test [1] and more than 10 µM in test [2].
Take `COC(=O)Cn1ncc2ccc(Nc3nc(Nc4cccc(O)c4)ncc3F)cc21` [R935220, 5-Fluoro-N2-(3-hydroxyphenyl)-N4-[1-(methoxycarbonyl)methyl-indazoline-6-yl]-2,4-pyrimidinediamine]: the values for the IC50 in test [1] and in test [2] were 3790 nM and more than 10 µM, respectively.
As for `CNC(=O)COc1cccc(Nc2ncc(F)c(Nc3ccc4c(c3)C(NC(C)=O)CCO4)n2)c1` (stereo not shown) [R950393, N4-(4-Acetylamino-3,4-dihydro-2H-1-benzopyran-6-yl)-5-fluoro-N2-[3-(N-methylamino)carbonylmethyleneoxyphenyl]-2,4-pyrimidinediamine], the IC50 in test [1] was 404 nM; in test [2], more than 10 µM.
Consider `CC(C)c1cccc(Nc2nc(Nc3cccc(OCCO)c3)ncc2F)c1` [R940289, 5-Fluoro-N2-[3-(2-hydroxyethyleneoxy)phenyl]-N4-(3-isopropylphenyl)-2,4-pyrimidinediamine], for which the concentration for half-maximal inhibition (IC50) is 272 nM in test [1] and more than 10 µM in test [2].
As to `Fc1cnc(Nc2ccc3cn[nH]c3c2)nc1Nc1ccc(OC(F)(F)F)c(Cl)c1` [R935368, N4-(3-Chloro-4-trifluoromethoxyphenyl)-5-fluoro-N2-(indazoline-6-yl)-2,4-pyrimidinediamine], the 50% inhibitory concentration (IC50) is 82 nM in test [1] and more than 10 µM in test [2].
Regarding `CNC(=O)COc1cccc(Nc2ncc(F)c(Nc3cccc(C(=NO)c4ccccc4)c3)n2)c1` [R950374, N4-(3-Phenylcarbonyloximephenyl)-5-fluoro-N2-[3-(N-methylamino)carbonylmethyleneoxyphenyl]-2,4-pyrimidinediamine], the values for the IC50 in test [1] and in test [2] were 599 nM and more than 10 µM, respectively.
With `Fc1cnc(Nc2ccc3[nH]ncc3c2)nc1Nc1ccc(Cl)cc1` [R935365, N4-(4-Chlorophenyl)-5-fluoro-N2-(indazoline-5-yl)-2,4-pyrimidinediamine], the concentration for half-maximal inhibition (IC50) is 373 nM in test [1] and more than 10 µM in test [2].
Regarding `CCOC(=O)c1cnc(Nc2ccc(OCC(=O)O)cc2)nc1Nc1ccc(OCC(=O)OC)cc1` [R926584, N2-(4-Carboxymethyleneoxyphenyl)-5-ethoxycarbonyl-N4-(4-methoxycarbonylmethyleneoxyphenyl)-2,4-pyrimidinediamine], the half-maximal inhibitory concentration (IC50) in test [1] is more than 10000 nM; in test [2], more than 10 µM.
With `CCOC(=O)C(C)(C)c1ccc(Nc2nc(Nc3ccc(OC(C)C)cc3)ncc2F)cc1` [R935167, N4-[4-[(1-Ethoxycarbonyl-1-methyl)ethyl]phenyl]-5-fluoro-N2-(4-isopropoxyphenyl)-2,4-pyrimidinediamine], the IC50 in test [1] was 2130 nM; in test [2], more than 10 µM.
In the case of `Cc1cnc(Nc2ccc(OCc3nnn(C)n3)cc2)nc1Nc1cccc(O)c1` [R920893, N4-(3-Hydroxyphenyl)-5-methyl-N2-[4-(2-methyl-1,2,3,4-tetrazol-5-yl)methyleneoxyphenyl]-2,4-pyrimidineamine], the IC50 in test [1] was 1240 nM; in test [2], more than 10 µM.
Turning to `CC(C)Oc1cccc(Nc2nc(Nc3ccc4oc(C(=O)N5CCOCC5)cc4c3)ncc2F)c1` [R926489, 5-Fluoro-N4-(3-isopropoxyphenyl)-N2-[2-(N-morpholino)carbonylbenzofuran-5-yl]-2,4-pyrimidinediamine], the IC50 in test [1] was 1410 nM; in test [2], more than 10 µM.
As to `Fc1cnc(Nc2ccc(OCc3nc(-c4ccccc4)no3)cc2)nc1Nc1ccc2c(c1)OCCO2` [R935136, N4-(3,4-Ethylenedioxyphenyl)-5-fluoro-N2-[4-(3-phenyl-1,2,4-oxadiazol-5-yl)methyleneoxyphenyl]-2,4-pyrimidinediamine], the IC50 in test [1] stood at 952 nM; in test [2], 2.13 µM.
Turning to `NCCNC(=O)c1cc2cc(Nc3ncc(F)c(Nc4ccc5oc(C(=O)NCCN)cc5c4)n3)ccc2o1` [R950168, N2,N4-Bis[2-(2-aminoethyleneamoinocarbonyl)-benzofurane-5-yl]-5-fluoro-2,4-pyrimidinediamine], the 50% inhibitory concentration (IC50) was 6500 nM in test [1] and 8.65 µM in test [2].
Take `CCOC(=O)COc1cccc(Nc2ncc(F)c(Nc3cccc(C(C)(C)C)c3)n2)c1` [R940270, N4-(3-tert-Butylphenyl)-N2-(3-ethoxycarbonylmethyleneoxyphenyl)-5-fluoro-2,4-pyrimidinediamine]: the results for the IC50 in test [1] and in test [2] were 2140 nM and 8.74 µM, respectively.
Regarding `CNC(=O)COc1cccc(Nc2ncc(F)c(Nc3ccc(F)c(C(F)(F)F)c3)n2)c1` [R926838, 5-Fluoro-N4-(4-fluoro-3-trifluoromethylphenyl)-N2-[3-(N-methylamino)carbonylmethyleneoxyphenyl]-2,4-pyrimidinediamine], the values for the IC50 in test [1] and in test [2] were 583 nM and more than 10 µM, respectively.
In the case of `CC(C)(C)c1ccc(Nc2nc(Nc3cccc(OCCO)c3)ncc2F)cc1` [R926728], the 50% inhibitory concentration (IC50) in test [1] is 482 nM; in test [2] it was more than 10 µM.
Consider `CCOC(=O)COc1cccc(Nc2ncc(F)c(Nc3ccc4c(c3)C(OC)CCO4)n2)c1` (stereo not shown) [R950294, N4-(4-Methoxy-3,4-dihydro-2H-1-benzopyran-6-yl)-5-fluoro-N2-[3-ethoxycarbonylmethyleneoxyphenyl]-2,4-pyrimidinediamine], for which the concentration for half-maximal inhibition (IC50) in test [1] turned out to be 2000 nM; in test [2] it was 8.01 µM.
With “N2,N4-Bis(methoxycarbonylbenzyl)-5-cyano-2,4-pyrimidinediamine [R925819]”, the half-maximal inhibitory concentration (IC50) in test [1] was more than 10000 nM; in test [2], more than 10 µM.
As to `CC(C)(C)c1cccc(Nc2nc(Nc3ccc4oc(CO)cc4c3)ncc2F)c1` [R940287, N4-(3-tert-Butylphenyl)-5-fluoro-N2-[(2-hydroxymethylene)benzofur-5-yl]-2,4-pyrimidinediamine], the IC50 in test [1] was found to be 288 nM; in test [2], 7.68 µM.
Turning to `COC(=O)c1cc(Nc2nc(Nc3ccc4c(c3)OCCO4)ncc2F)cn1C` [R935166, N2-(3,4-Ethylenedioxyphenyl)-5-fluoro-N4-[(N-methyl-2-methoxycarbonyl)pyrrol-4-yl]-2,4-pyrimidinediamine], the IC50 in test [1] was 568 nM; in test [2], more than 10 µM.
The corresponding values for `O=C(CNc1cccc(Nc2ncc(F)c(Nc3cccc(O)c3)n2)c1)NCCN1CCOCC1` [R950226] are 1370 nM and more than 10 µM.
In the case of `CCOC(=O)COc1cccc(Nc2ncc(C(=O)OCC)c(Nc3ccc4c(c3)OCCO4)n2)c1` [R926797, N4-(3,4-Ethylenedioxyphenyl)-N2-(3-ethoxycarbonylmethyleneoxyphenyl)-5-ethoxycarbonyl-2,4-pyrimidinediamine], the half-inhibitory concentration (IC50) in test [1] was 2240 nM; in test [2] it was more than 10 µM.
As to `CCCCNC(=O)COc1ccc(Nc2ncc(C#N)c(Nc3ccc(OCC(=O)NCCCC)cc3)n2)cc1` [R925860, N2,N4-Bis[4-(N-n-butylamino)carbonylmethyleneoxyphenyl]-5-cyano-2,4-pyrimidinediamine], the figures for the IC50 in test [1] and in test [2] were more than 10000 nM and more than 10 µM, respectively.
`COc1cc(Nc2ncc(F)c(Nc3ccc(OCc4nc(-c5ccccc5)no4)cc3)n2)cc(OC)c1OC` [R935367, 5-Fluoro-N4-[4-(3-phenyl-1,2,4-oxadiazol-5-yl)methyleneoxyphenyl]-N2-(3,4,5-trimethoxyphenyl)-2,4-pyrimidinediamine]: the IC50 in test [2] is more than 10 µM.
Still for that read-out and setting: next, `CC(C)(CO)NC(=O)COc1cccc(Nc2ncc(F)c(Nc3cccc(C(C)(C)C)c3)n2)c1` [R940308, N4-(3-tert-Butylpheny)-5-fluoro-N2-[3-(1,1-dimethyl-2-hydroxyethylaminocarbonylmethyleneoxy)-phenyl]-2,4-pyrimidinediamine]: 4.17 µM; `CNC(=O)COc1cccc(Nc2ncc(F)c(Nc3ccc(OC)c(Cl)c3)n2)c1` [R926891, N4-(3-Chloro-4-methoxyphenyl)-5-fluoro-N2-[3-[(N-methylamino)carbonylmethyleneoxy]phenyl]-2,4-pyrimidinediamine]: more than 10 µM; `CNC(=O)COc1cccc(Nc2ncc(F)c(Nc3ccc4c(c3)N(C)CCO4)n2)c1` [R909259, 5-Fluoro-N2-[3-(N-methylaminocarbonylmethyleneoxy)phenyl]-N4-(N-methyl-1,4-benzoxazin-6-yl)pyrimidinediamine]: more than 10 µM.
Still for that read-out and setting: next, `Cc1cc(Nc2nc(Cl)ncc2F)ccc1F` [Compound R926921]: more than 10 µM.
On the same count and under the same terms, under `CNC(=O)COc1cc(Nc2ncc(F)c(Nc3cccc(O)c3)n2)ccc1C` [R926757, 5-Fluoro-N4-(3-hydroxyphenyl)-N2-[4-methyl-3-[(N-methylamino)carbonylmethyleneoxy]phenyl]-2,4-pyrimidinediamine] stands more than 10 µM; under `Cc1ccc(Nc2nc(Cl)ncc2F)cc1CNC(=O)OC(C)(C)C` [Compound R926924], more than 10 µM; under `Cc1cc(Nc2nc(Nc3cccc(OCCN4CCOCC4)c3)ncc2F)cc(C)c1O` [R940255, N4-(3,5-Dimethyl-4-hydroxyphenyl)-5-fluoro-N2-[3-[2-(N-morpholino)ethyleneoxy]phenyl]-2,4-pyrimidinediamine], more than 10 µM.
`CNC(=O)COc1cccc(Nc2ncc(F)c(Nc3ccc4c(c3)NCCO4)n2)c1` [R920395, N4-(1,4-Benzoxazin-6-yl)-5-fluoro-N2-[3-(N-methylamino)carbonylmethyleneoxyphenyl]-2,4-pyrimidinediamine Hydrogen Chloride Salt] had an IC50 in test [2] of more than 10 µM.
As for `Oc1cccc(Nc2ncc(F)c(Nc3cccc(O)c3)n2)c1` [R926461, N2,N4-Bis(3-sodiumphenoxy)-5-fluoro-2,4-pyrimidinediamine], in test [2], the IC50 is more than 10 µM.
